In ChEMBL document CHEMBL1139489, “Design and NMR characterization of active analogues of compstatin containing non-natural amino acids” (J Med Chem, 2005):

The compounds below were run against Complement C3 (Homo sapiens, UniProt P01024) (assay: Inhibitory concentration for human complement component C3 activation).
Complement C3, sequence (P01024 23-667 limits assumed): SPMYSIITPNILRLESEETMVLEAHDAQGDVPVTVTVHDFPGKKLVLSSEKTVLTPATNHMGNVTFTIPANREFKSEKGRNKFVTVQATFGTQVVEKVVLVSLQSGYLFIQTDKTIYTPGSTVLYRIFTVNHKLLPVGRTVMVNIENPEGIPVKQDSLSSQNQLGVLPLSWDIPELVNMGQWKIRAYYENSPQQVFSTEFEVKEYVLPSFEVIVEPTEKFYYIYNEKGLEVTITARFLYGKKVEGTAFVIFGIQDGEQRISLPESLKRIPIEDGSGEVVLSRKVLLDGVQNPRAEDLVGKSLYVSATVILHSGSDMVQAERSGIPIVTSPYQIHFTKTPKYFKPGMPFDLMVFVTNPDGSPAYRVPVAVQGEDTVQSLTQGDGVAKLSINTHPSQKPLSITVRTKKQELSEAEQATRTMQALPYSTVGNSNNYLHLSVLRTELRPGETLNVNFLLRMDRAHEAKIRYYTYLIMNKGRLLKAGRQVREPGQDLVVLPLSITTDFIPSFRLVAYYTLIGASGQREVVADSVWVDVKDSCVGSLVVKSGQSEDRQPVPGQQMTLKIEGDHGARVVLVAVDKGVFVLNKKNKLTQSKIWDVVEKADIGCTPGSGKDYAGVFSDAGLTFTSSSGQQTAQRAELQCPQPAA
Complement C3, sequence (P01024 672-1663 limits assumed): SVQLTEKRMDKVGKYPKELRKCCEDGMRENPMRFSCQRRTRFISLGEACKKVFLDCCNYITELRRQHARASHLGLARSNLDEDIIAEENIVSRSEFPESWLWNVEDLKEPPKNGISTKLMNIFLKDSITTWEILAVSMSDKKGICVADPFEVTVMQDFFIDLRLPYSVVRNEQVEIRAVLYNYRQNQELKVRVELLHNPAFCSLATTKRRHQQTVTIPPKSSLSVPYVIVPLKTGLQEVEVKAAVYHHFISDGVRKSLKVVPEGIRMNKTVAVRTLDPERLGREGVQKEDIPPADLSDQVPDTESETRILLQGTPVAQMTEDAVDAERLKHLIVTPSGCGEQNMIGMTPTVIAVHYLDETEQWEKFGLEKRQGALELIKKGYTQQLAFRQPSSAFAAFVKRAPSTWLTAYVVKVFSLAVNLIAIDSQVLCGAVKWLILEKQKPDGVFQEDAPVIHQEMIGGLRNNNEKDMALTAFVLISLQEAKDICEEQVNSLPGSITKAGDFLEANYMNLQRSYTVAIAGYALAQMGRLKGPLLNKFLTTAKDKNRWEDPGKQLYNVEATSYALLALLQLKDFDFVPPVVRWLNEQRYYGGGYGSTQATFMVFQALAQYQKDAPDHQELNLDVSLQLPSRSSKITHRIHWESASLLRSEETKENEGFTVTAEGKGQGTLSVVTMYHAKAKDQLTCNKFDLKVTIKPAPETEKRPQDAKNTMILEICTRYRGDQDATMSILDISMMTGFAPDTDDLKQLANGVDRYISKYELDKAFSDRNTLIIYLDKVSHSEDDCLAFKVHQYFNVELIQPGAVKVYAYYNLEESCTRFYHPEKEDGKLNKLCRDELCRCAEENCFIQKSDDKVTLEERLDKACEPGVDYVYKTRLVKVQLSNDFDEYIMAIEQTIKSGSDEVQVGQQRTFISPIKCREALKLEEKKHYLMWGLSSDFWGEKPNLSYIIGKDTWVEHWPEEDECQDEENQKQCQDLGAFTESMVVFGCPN

Row | SMILES | IC50 [µM]
1 | CC[C@H](C)[C@H](NC(C)=O)C(=O)N[C@H]1CSSC[C@@H](C(=O)N[C@H](C(N)=O)[C@@H](C)O)NC(=O)[C@H](CCCNC(=N)N)NC(=O)[C@H](Cc2cnc[nH]2)NC(=O)[C@H](Cc2c[nH]c3ccccc23)NC(=O)CNC(=O)[C@H](Cc2c[nH]c3ccccc23)NC(=O)[C@H](CC(=O)O)NC(=O)[C@H](CCC(N)=O)NC(=O)[C@H](Cc2c[nH]c3ccccc23)NC(=O)[C@H](C(C)C)NC1=O | 3.1
2 | CC[C@H](C)[C@H](NC(C)=O)C(=O)N[C@H]1CSSC[C@@H](C(=O)N[C@H](C(N)=O)[C@@H](C)O)NC(=O)[C@H](CCCN=C(N)N)NC(=O)[C@H](Cc2c[nH]cn2)NC(=O)[C@H](C)NC(=O)CNC(=O)[C@H](Cc2c[nH]c3ccccc23)NC(=O)[C@H](CC(=O)O)NC(=O)[C@H](CCC(N)=O)NC(=O)[C@H](Cc2csc3ccccc23)NC(=O)[C@H](C(C)C)NC1=O | 0.8
3 | CC[C@H](C)[C@H](NC(C)=O)C(=O)N[C@H]1CSSC[C@@H](C(=O)N[C@H](C(=O)O)[C@@H](C)O)NC(=O)[C@H](CCCN=C(N)N)NC(=O)[C@H](Cc2c[nH]cn2)NC(=O)[C@H](C)NC(=O)CNC(=O)[C@H](Cc2c[nH]c3ccccc23)NC(=O)[C@H](CC(=O)O)NC(=O)[C@H](CCC(N)=O)NC(=O)[C@H](Cc2ccc(C(=O)c3ccccc3)cc2)NC(=O)[C@H](C(C)C)NC1=O | 1.1
